In patent US10226445B2, “Pharmaceutical preparations” (Symrise AG, priority 2013, dated 2019):

Test system: HGT-1 cells
Experiment: Intracellular pH / proton secretion of HGT-1 cell cultures (SNARF-1-AM dye)
Type: cell-based, human
Details: for proton secretion in the HGT-1 cells (in words): substances of group (b), Tables 1A and 1B; for activation at 30 µM: 0.03 mM substance of group (a) alone; for activation at 300 µM: 0.3 mM substance of group (a) alone; for stimulation of proton secretion by 3 mM caffeine or 0.3 mM theobromine (in words): additional administration at a concentration of 0.3 mM; for induced gastric acid secretion (in words): preparations with caffeine and/or theobromine as component (b)
Experimental: Human parietal cells, also known as human gastric tumor cell line (HGT-1), are used as cell model. These were provided by Dr. C. Laboisse (Laboratory of Pathological Anatomy, Nantes, France). The cells were cultured under standard conditions at 37° C., 5% CO2 in DMEM (Dulbecco's Modified Eagle's Medium) with 4 g/l glucose, 10% FBS, 2% L-glutamine and 1% penicillin/streptomycin. For the measurement of the intracellular proton concentration, the cells are treated with trypsin/EDTA, the viability determined by means of trypan blue staining and 100 000 cells/well seeded in black 96-well plates.
To measure the intracellular pH, the dye 1,5-carboxyseminaphthorhodafluoro acetoxymethyl ester (SNARF-1-AM) is used. The cells in the 96-well plates are washed once with Krebs-Hepes buffer (KRHP) and incubated at 37° C. and 5% CO2 for 30 min with the dye dissolved in KRHP at a concentration of 3 μM. The cells are then washed twice with KRHP and substances of group (b), for example 3 mM caffeine or 0.3 mM theobromine, alone or in combination with substances of group (a), for example, homoeriodictyol (HED) or eriodictyol or matairesinol, lariciresinol or enterolactone, are applied in volumes of 100 μl at various concentrations in phenol red-free DMEM; as additional control experiments, the abovementioned substances of group (a) are tested alone. Homoeriodictyol is dissolved in double-distilled water while eriodictyol, matairesinol, lariciresinol or enterolactone are dissolved in ethanol (EtOH). The final concentration of solvent which is added to the cells is at most 1%. The fluorescent dye is excited at a wavelength of 488 nm and the emission measured at 580 nm and 640 nm. The ratio of the fluorescence values at 580 nm to 640 nm is compared to a calibration curve from which the pH can be determined. For the calibration curve, the cells are treated with a potassium phosphate buffer of different pH values from pH 7.2-8.2 and 2 μM nigericin. Nigericin equilibrates the intracellular and extracellular pH such that the intracellular pH may be defined. The intracellular H^+ concentration is determined from the intracellular pH. The intracellular proton index (IPX) is calculated by log 2 transformation of the ratio of treated cells and untreated cells (control). […] The number of replicates specified refers to the technical replicates (tr) or the number or total replicates (n), which results from the number of technical replicates multiplied by the number of biological replicates.

[1] = 0.03 mM substance of group (a) in combination with 3 mM caffeine, 10 minutes
[2] = 0.3 mM substance of group (a) in combination with 3 mM caffeine, 10 minutes
[3] = Homo sapiens, HGT-1, 10 min, 10 minutes, read-out: T/C [%], percentage increase of the proton secretion compared to untreated controls
[4] = 0.03 mM substance of group (a) in combination with 0.3 mM theobromine, 10 minutes
[5] = 0.3 mM substance of group (a) in combination with 0.3 mM theobromine, 10 minutes

Row | SMILES | T/C [%], percentage increase of the proton secretion compared to untreated controls (3 mM substance + 1% EtOH, 10 minutes stimulation) [%] | proton secretion in the HGT-1 cells (in words) | T/C [%], percentage increase of the proton secretion compared to untreated controls [1] [%] | T/C [%], percentage increase of the proton secretion compared to untreated controls [2] [%] | activation at 30 µM [3] [%] | activation at 300 µM [3] [%] | stimulation of proton secretion by 3 mM caffeine or 0.3 mM theobromine (in words) | induced gastric acid secretion (in words) | T/C [%], percentage increase of the proton secretion compared to untreated controls [4] [%] | T/C [%], percentage increase of the proton secretion compared to untreated controls [5] [%] | T/C [%], percentage increase of the proton secretion compared to untreated controls (0.003 mM substance of group (a) in combination with 0.3 mM theobromine, 10 minutes) [%] | activation at 3 µM (Homo sapiens, HGT-1, 10 min, 0.003 mM substance of group (a) alone, 10 minutes, read-out: T/C [%], percentage increase of the proton secretion compared to untreated controls) [%] | activation at 1000 µM (Homo sapiens, HGT-1, 10 min, 1 mM substance alone, 10 minutes stimulation, read-out: T/C [%], percentage increase of the proton secretion compared to untreated controls) [%] | T/C [%], percentage increase of the proton secretion compared to untreated controls (0.3 mM substance of group (b) + 1% EtOH, 10 minutes stimulation) [%]
1 | Cn1c(=O)c2c(ncn2C)n(C)c1=O [Caffeine, caffeine, reference compound] | 44.92 | stimulated |  |  |  |  |  |  |  |  |  |  |  | 
2 | O=C1OC[C@@H](Cc2cccc(O)c2)[C@@H]1Cc1cccc(O)c1 [Enterolactone, enterolactone] |  |  | 23.41 | −18.25 | -2.76 | -27.3 | reduced or completely inhibited | highest reduction or complete inhibition |  |  |  |  |  | 
3 | O=C1CC(c2ccc(O)c(O)c2)Oc2cc(O)cc(O)c21 (stereo not drawn) [Eriodictyol, eriodictyol] |  |  | 29.69 | −33.96 | -10.8 | -11.7 | reduced or completely inhibited | highest reduction or complete inhibition | 23.95 | −42.86 |  |  |  | 
4 | COc1cc(C2CC(=O)c3c(O)cc(O)cc3O2)ccc1O (stereo not drawn) [HED, homoeriodictyol] |  |  | 37.99 | 20.18 | 12.7 | -3.66 | reduced or completely inhibited | highest reduction or complete inhibition | 13.79 | −16.92 | 21.56 | -8.04 |  | 
5 | NCCc1c[nH]cn1 [Histamine, reference compound] |  |  |  |  |  |  |  |  |  |  |  |  | 27.4 | 
6 | COc1cc(C[C@H]2CO[C@H](c3ccc(O)c(OC)c3)[C@H]2CO)ccc1O [Lariciresinol, lariciresinol] |  |  | 46.40 | 21.57 | 6.4 | -2.04 | reduced or completely inhibited | highest reduction or complete inhibition | 31.73 | 17.55 |  |  |  | 
7 | COc1cc(C[C@H]2COC(=O)[C@@H]2Cc2ccc(O)c(OC)c2)ccc1O [Matairesinol, matairesinol] |  |  | 14.39 | −20.43 | -9.4 | -31.7 | reduced or completely inhibited | highest reduction or complete inhibition | 23.41 | −18.25 |  |  |  | 
8 | Cn1cnc2c1c(=O)[nH]c(=O)n2C [Theobromine, theobromine, reference compound] |  | stimulated |  |  |  |  |  |  |  |  |  |  |  | 32.11
